Data published in the supplement of paper PMC10307832.

Experiments:
Assay in all cases: relative viability (nuclei count vs DMSO), 5 days (fraction); higher = more cells survive
[1] = compound: C(C(=O)C(=O)O)Br [Bromopyruvate] + Cc1cc(Nc2cc(N3CCN(C)CC3)nc(Sc3ccc(NC(=O)C4CC4)cc3)n2)n[nH]1 [Tozasertib] (partner 0.1 µM)
Outline: (§1)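 Nuclei were stained with Hoechst during a one-step fixation (final 0.05% Triton X-100, 1% formaldehyde, 1 ug/ml Hoechst) carried out 5 days after dosing, then counted on 4× images. The cells, lung cancer lines in 1536-well plates, had been dosed by pin tool the day after seeding with one drug alone or a fixed anchor-drug dose plus five library-drug doses (not always all listed) in √10 steps. Relative viability is the nuclei count in treated wells divided by that in vehicle wells, and each value is the median of duplicate plates.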

[2] = compound: C(C(=O)C(=O)O)Br [Bromopyruvate] + COc1cc2c(Oc3ccc(NC(=O)C4(C(=O)Nc5ccc(F)cc5)CC4)cc3F)ccnc2cc1OCCCN1CCOCC1 [Foretinib] (partner 0.25 µM)
Outline: as §1

[3] = compound: CC(O)(CS(=O)(=O)c1ccc(F)cc1)C(=O)Nc1ccc(C#N)c(C(F)(F)F)c1 [Bicalutamide] + CC(C)C[C@H](NC(=O)[C@H](Cc1ccccc1)NC(=O)c1cnccn1)B(O)O [Bortezomib] (partner 0.002 µM)
Outline: as §1

[4] = compound: CC(O)(CS(=O)(=O)c1ccc(F)cc1)C(=O)Nc1ccc(C#N)c(C(F)(F)F)c1 [Bicalutamide] + C[C@@H](Oc1cc(-c2cnn(C3CCNCC3)c2)cnc1N)c1c(Cl)ccc(F)c1Cl [Crizotinib] (partner 1 µM)
Outline: as §1

Cell Line: UMC-11
- relative viability ([1]; first compound 1 µM): 0.201
- relative viability ([1]; first compound 3.162 µM): 0.196
- relative viability ([1]; first compound 10 µM): 0.188
- relative viability ([1]; first compound 31.62 µM): 0.208
- relative viability ([1]; first compound 100 µM): 0.213
- relative viability ([2]; first compound 1 µM): 1.05
- relative viability ([2]; first compound 3.162 µM): 1.02
- relative viability ([2]; first compound 10 µM): 1.04
- relative viability ([2]; first compound 31.62 µM): 0.989
- relative viability ([2]; first compound 100 µM): 0.987
- relative viability ([3]; first compound 0.08 µM): 0.758
- relative viability ([3]; first compound 0.253 µM): 0.67
- relative viability ([3]; first compound 0.8 µM): 0.762
- relative viability ([3]; first compound 2.53 µM): 0.596
- relative viability ([4]; first compound 0.08 µM): 0.69
- relative viability ([4]; first compound 0.253 µM): 0.521
- relative viability ([4]; first compound 0.8 µM): 0.643
- relative viability ([4]; first compound 2.53 µM): 0.399
